Experiments:
[1] = Drug excretion in iv dosed dog assessed as compound excreted into bile; type: ADME, organism-based, Canis lupus familiaris; conditions: read-out: Drug excretion
[2] = Drug excretion in iv dosed human assessed as compound excreted into bile by T-tube method; type: ADME, organism-based; conditions: read-out: Drug excretion
[3] = Drug excretion in iv dosed rat assessed as compound excreted into bile; type: ADME, organism-based; conditions: read-out: Drug excretion
Rattus norvegicus [4] = assay: Unbound biliary clearance in iv dosed Wistar rat; type: ADME, organism-based, Bile; conditions: in vivo
[5] = Drug excretion in iv dosed Wistar rat assessed as compound excreted into bile; type: ADME, organism-based; conditions: read-out: Drug excretion
Rattus norvegicus [6] = assay: Total biliary clearance in iv dosed Wistar rat; type: ADME, organism-based, Bile; conditions: in vivo
Homo sapiens [7] = assay: Total biliary clearance in iv dosed human after 6 hrs by T-tube method; type: ADME, organism-based, Bile; conditions: in vivo
Homo sapiens [8] = assay: Unbound biliary clearance in iv dosed human after 6 hrs; type: ADME, organism-based, Bile; conditions: in vivo
[9] = Drug excretion in iv dosed human assessed as compound excreted into bile after 6 hrs; type: ADME, organism-based; conditions: read-out: Drug excretion

Cc1nnc(SCC2=C(C(=O)O)N3C(=O)[C@@H](NC(=O)Cn4cnnn4)[C@H]3SC2)s1 [CEFAZOLIN]
dose excreted [1]: 2% | dose excreted [2]: 0.1% | dose excreted [3]: 30%

Cn1nnnc1SCC1=C(C(=O)O)N2C(=O)[C@@H](NC(=O)[C@H](O)c3ccccc3)[C@H]2SC1 [CEFAMANDOLE]
CL free (Rattus norvegicus [4]): 29.41 mL/min/kg | dose excreted [5]: 33% | CL (Rattus norvegicus [6]): 5 mL/min/kg | CL (Homo sapiens [7]): 0.012 mL/min/kg | CL free (Homo sapiens [8]): 0.048 mL/min/kg | dose excreted at 6 h [9]: 0.4%
